Seven molecules from PubChem BioAssay (NCI) can be followed below.

Each structure is given as a SMILES string.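 Results reflect a 48-hour exposure of cells in 96-well plates to compound at five concentrations. TGI: concentration producing complete growth inhibition.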

Some test systems named below: A549 NSCLC; EKVX NSCLC; HL-60(TB) leukemia; HOP-62 NSCLC; IGROV1 ovarian; LOX IMVI melanoma; MDA-MB-435; NCI-H226 lung; NCI-H460 lung; NCI-H522 lung; NCI/ADR-RES ovarian; OVCAR-5 ovarian; OVCAR-8 ovarian; SF-268 CNS; SK-MEL-28 melanoma; SK-OV-3 ovarian; U251 CNS; UACC-62 melanoma; CCRF-CEM leukemia.
Assay in all cases: growth of human tumour cells (NCI), 48 h

As for `O=C(NNC(=O)c1ccccc1O)c1cccc(Br)c1`, the TGI in the test with A549 NSCLC, in the test with EKVX NSCLC, with HL-60(TB) leukemia, with HOP-62 NSCLC, with IGROV1 ovarian and with LOX IMVI melanoma was greater than 100 µM in each case. In addition, the TGI in the test with MDA-MB-435 was greater than 100 µM; with NCI-H226 lung, greater than 100 µM; with NCI-H460 lung it was greater than 100 µM; with NCI-H522 lung, 83.3 µM; in the test on NCI/ADR-RES ovarian it was greater than 100 µM; in the test on OVCAR-5 ovarian it was greater than 100 µM. The TGI in the test on OVCAR-8 ovarian, in the test with SF-268 CNS, in the test on SK-MEL-28 melanoma, in the test with SK-OV-3 ovarian, with U251 CNS and with UACC-62 melanoma was greater than 100 µM in each case.
With `CC(=O)NC1=N/C(=C\c2ccc(Cl)cc2)C(=O)N1/C=C1\C(=O)Oc2ccccc2C1=O`, the TGI in the test with A549 NSCLC, in the test with CCRF-CEM leukemia, with EKVX NSCLC, in the test with HL-60(TB) leukemia, in the test with HOP-62 NSCLC and in the test on IGROV1 ovarian was greater than 100 µM throughout. The TGI with LOX IMVI melanoma, in the test on MDA-MB-435, in the test with NCI-H226 lung, in the test on NCI-H460 lung, in the test with NCI-H522 lung and in the test with NCI/ADR-RES ovarian was greater than 100 µM throughout. Moreover, the TGI in the test with OVCAR-5 ovarian, in the test on OVCAR-8 ovarian, with SF-268 CNS, in the test with SK-MEL-28 melanoma, in the test on SK-OV-3 ovarian and with U251 CNS was greater than 100 µM in each case. This molecule showed a TGI in the test on UACC-62 melanoma greater than 100 µM.
In the case of `O=C1NC(N/N=C\C(O)C(O)C(O)C(O)CO)=N/C1=C/c1ccc(Cl)cc1` (stereo unspecified), the TGI in the test on A549 NSCLC, with CCRF-CEM leukemia, in the test on EKVX NSCLC, in the test on HL-60(TB) leukemia, in the test with HOP-62 NSCLC and in the test with IGROV1 ovarian was greater than 100 µM in each case. Also, the TGI in the test on LOX IMVI melanoma, with MDA-MB-435, in the test on NCI-H226 lung, in the test with NCI-H460 lung, in the test with NCI-H522 lung and in the test on NCI/ADR-RES ovarian was greater than 100 µM each time. The TGI with OVCAR-5 ovarian, in the test on OVCAR-8 ovarian, in the test on SF-268 CNS, with SK-MEL-28 melanoma, in the test on SK-OV-3 ovarian and in the test on U251 CNS was greater than 100 µM each time.
In the case of `CCOc1nnnc2nc[nH]c12`, the TGI with A549 NSCLC, in the test with EKVX NSCLC, in the test on HL-60(TB) leukemia, in the test on HOP-62 NSCLC, in the test with IGROV1 ovarian and with LOX IMVI melanoma was greater than 100 µM throughout. Moreover, the TGI with MDA-MB-435, in the test with NCI-H226 lung, in the test with NCI-H460 lung, in the test on NCI-H522 lung, with NCI/ADR-RES ovarian and in the test on OVCAR-5 ovarian was greater than 100 µM in each case. Besides, the TGI in the test with OVCAR-8 ovarian, in the test on SF-268 CNS, in the test on SK-MEL-28 melanoma, in the test on SK-OV-3 ovarian, in the test on U251 CNS and in the test with UACC-62 melanoma was greater than 100 µM in each case.
As for `O=C(CC(C(=O)c1ccsc1)c1ccccc1)c1ccccc1` (stereo unspecified), the TGI in the test with A549 NSCLC was 80 µM; with CCRF-CEM leukemia, greater than 100 µM; in the test on EKVX NSCLC it was greater than 100 µM; in the test with HL-60(TB) leukemia, 23 µM; in the test on HOP-62 NSCLC, greater than 100 µM; in the test on IGROV1 ovarian, greater than 100 µM. Besides, the TGI with LOX IMVI melanoma, in the test with MDA-MB-435, in the test on NCI-H226 lung, in the test with NCI-H460 lung, in the test with NCI-H522 lung and in the test with NCI/ADR-RES ovarian was greater than 100 µM throughout. The TGI with OVCAR-5 ovarian, in the test with OVCAR-8 ovarian, in the test with SF-268 CNS, with SK-MEL-28 melanoma, in the test with SK-OV-3 ovarian and with U251 CNS was greater than 100 µM in each case. Also, the TGI with UACC-62 melanoma was greater than 100 µM.
Turning to `COC(=O)C1=C(O)c2ccc(Cl)cc2S(=O)(=O)N1C`, the TGI in the test with A549 NSCLC, in the test with CCRF-CEM leukemia, with EKVX NSCLC, in the test on HL-60(TB) leukemia, in the test with IGROV1 ovarian and in the test with LOX IMVI melanoma was greater than 100 µM each time. Besides, the TGI with MDA-MB-435 is greater than 100 µM; in the test with NCI-H460 lung, greater than 100 µM; in the test on NCI-H522 lung, greater than 100 µM; with NCI/ADR-RES ovarian it was 95 µM; in the test on OVCAR-5 ovarian, greater than 100 µM; in the test on SF-268 CNS, greater than 100 µM. Moreover, the TGI in the test on SK-MEL-28 melanoma, in the test on SK-OV-3 ovarian, with U251 CNS and in the test with UACC-62 melanoma was greater than 100 µM throughout.
Regarding `Cc1cc(C(F)(F)F)cc(-n2nc(NS(=O)(=O)c3cc(C)c(Cl)cc3S)nc2N)n1`, the TGI was greater than 100 µM in the test with A549 NSCLC; 54.1 µM with CCRF-CEM leukemia; greater than 100 µM with EKVX NSCLC; 77.8 µM in the test on HL-60(TB) leukemia; greater than 100 µM in the test with HOP-62 NSCLC; greater than 100 µM in the test with IGROV1 ovarian. The TGI in the test with LOX IMVI melanoma was greater than 100 µM; with MDA-MB-435, greater than 100 µM; in the test with NCI-H226 lung it was greater than 100 µM; in the test with NCI-H460 lung, 70.7 µM; in the test on NCI-H522 lung, 91.5 µM; in the test on NCI/ADR-RES ovarian, 94.1 µM. Also, the TGI in the test on OVCAR-8 ovarian, in the test on SF-268 CNS, with SK-MEL-28 melanoma, in the test on SK-OV-3 ovarian, in the test with U251 CNS and in the test with UACC-62 melanoma was greater than 100 µM in each case.
